Experiment [1] has as its target T1, GenB2 (Micromonospora echinospora, UniProt Q70KE6).
T1 construct: gene gacE; full length in pET28a, E. coli BL21(DE3), nickel IMAC and gel filtration; plasmid carries an extra 57 nucleotides at the 5' end; homodimer
The experiment in a line: X-ray crystal structure of the complex. Conditions: ternary complex with PMP; substrate-binding site; at least 100 mM ligand, pH 6.0, 18 °C.

Experiment [2] has as its target T1, GenB2. The experiment in a line: epimerisation to gentamicin C2a, HPLC. Type of experiment: biochemical. The following applies: 200 μM substrate, 20 μM enzyme, 50 mM Tris-HCl pH 8.0, 30 °C, overnight.
Experiment [3] deals with T1, GenB2. Briefly: epimerisation to gentamicin C2, HPLC. Type of experiment: biochemical. The following applies: 200 μM substrate, 20 μM enzyme, 50 mM Tris-HCl pH 8.0, 30 °C, overnight.
Experiment [4] deals with T1, GenB2. Briefly: X-ray crystal structure of the holo enzyme. Type of experiment: binding. The following applies: copurified; coenzyme site at the dimer interface, no Schiff base with Lys227; pH 6.0.
For experiment [5], the target named is GenB2 (Micromonospora echinospora). The experiment in a line: crystal structure; holo GenB2 (PMP) and its complexes with G418 or gentamicin X2; space group C222(1), a single protomer in the asymmetric unit, dimer obtained by a symmetry operation; 0.1 M PIPES pH 6.0, 1 M NaCl, 29% PEG 4000, 30% 6-aminohexanoic acid, 18 °C.
The target is the same in experiment [6]. Briefly: not stated; GenB2 in solution; the method is not told.

T1 sequence (Q70KE6 entry or part of it): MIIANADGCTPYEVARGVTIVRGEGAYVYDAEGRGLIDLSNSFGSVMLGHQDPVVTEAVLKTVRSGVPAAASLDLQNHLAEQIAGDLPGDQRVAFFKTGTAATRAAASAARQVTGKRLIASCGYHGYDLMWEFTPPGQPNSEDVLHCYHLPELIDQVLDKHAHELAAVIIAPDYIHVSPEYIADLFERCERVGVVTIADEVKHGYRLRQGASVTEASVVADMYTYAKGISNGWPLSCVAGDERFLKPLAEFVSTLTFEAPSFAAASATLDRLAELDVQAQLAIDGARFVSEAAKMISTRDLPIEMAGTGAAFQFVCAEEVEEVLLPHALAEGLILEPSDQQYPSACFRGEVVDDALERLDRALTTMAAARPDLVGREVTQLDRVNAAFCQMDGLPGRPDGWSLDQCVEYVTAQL

As to `CN[C@@H]1[C@@H](O)[C@@H](O[C@@H]2[C@@H](O)[C@H](O[C@H]3O[C@H](CO)[C@@H](O)[C@H](O)[C@H]3N)[C@@H](N)C[C@H]2N)OC[C@]1(C)O` (stereo in doubt) [gentamicin X2], the “X-ray crystal structure of the complex” value on GenB2 [1] is “we have obtained the structure of GenB2 in complex with gentamicin G418 and gentamicin X2”.
Consider `CN[C@@H]1[C@@H](O)[C@@H](O[C@@H]2[C@@H](O)[C@H](O[C@H]3O[C@H]([C@@H](C)N)CC[C@H]3N)[C@@H](N)C[C@H]2N)OC[C@]1(C)O` [gentamicin C2], for which the “epimerisation to gentamicin C2a, HPLC” value at GenB2 [2] is “conversion of gentamicin C2 into C2a or C2a into C2”.
Take `CN[C@@H]1[C@@H](O)[C@@H](O[C@@H]2[C@@H](O)[C@H](O[C@H]3O[C@H]([C@H](C)N)CC[C@H]3N)[C@@H](N)C[C@H]2N)OC[C@]1(C)O` [gentamicin C2a]: the “epimerisation to gentamicin C2, HPLC” value at GenB2 [3] is “wild-type GenB2 was able to perform a high ratio of conversion”.
Regarding `Cc1ncc(COP(=O)(O)O)c(CN)c1O` [pyridoxamine 5-phosphate], at GenB2 [4], the “X-ray crystal structure of the holo enzyme” value is recorded as “Each dimer of GenB2 has two PMP molecules bound at the interfaces between the protomers”.
As to GenB2 (enzyme), the stoichiometry N in experiment [5] and in experiment [6] was 2 throughout.

These data come from article PMC11420954, “Structural and Functional Basis of GenB2 Isomerase Activity from Gentamicin Biosynthesis” (ACS Chemical Biology, 2024).
